Tested on: 817829-284-R-J1-PDC complex spheroid viability
Assay: Anticancer human tumor 817829-284-R-J1-PDC patient-derived colon adenocarcinoma cell line growth inhibition [POLQ]
Conditions: for IC50: curve of first compound; for viability, T/C: stronger effect = lower value
Description: Multicellular complex tumor spheroid response to Polymerase (POL) inhibitors (novobiocin, ART-558, RP6685) in combination with a variety of drugs and investigational agents in selected tumor cell lines
The POL inhibitors (novobiocin, ART-558, and RP6685) were evaluated both individually and in combination with standard of care and investigational anticancer small molecules within a complex spheroid model of solid tumors. . Complex spheroids include a stromal component modeled by human endothelial cells (HUVEC) and fibroblasts modeled by human mesenchymal stem cells (MSCs). The concentration ranges selected for each drug and investigational agent were based upon clinically achievable concentrations if the clinical Cmax of the agent was known.
Compounds. The drugs and investigational agents: novobiocin (NSC847541), ART-558 (NSC835418), RP-6685 (NSC848927), peposertib (NSC802822), ceralasertib (NSC780249), elimusertib (NSC800525), camonsertib (NSC841442), AZD-1390 (NSC803789), olaparib (NSC753686), talazoparib (NSC767125), rucaparib (NSC756644), sotorasib (NSC818433), MRTX-1133 (NSC836407), SN-38 (NSC673596), topotecan (NSC609699), epotoside (NSC141540), doxorubicin (NSC123127), gemcitabine (NSC613327), 5-fluorouracil (NSC19893), paclitaxel (NSC125973), vemurafenib (NSC761431), MSA-2 (NSC828583), SN-011 (NSC837082), adavosertib (NSC754352), prexasertib (NSC758257), carboplatin (NSC241240) and oxaliplatin (NSC266046), were obtained from the National Cancer Institute (NCI) Developmental Therapeutics Program Chemical Repository (21). The FDA-approved anticancer drug set is available from the Developmental Therapeutics Program at https://dtp.cancer.gov/organization/dscb/obtaining/. […] The stock solutions were prepared in dimethyl sulfoxide (DMSO, Sigma-Aldrich, St. Louis, MO, cat. D2650), except for the platinum compounds which were prepared in saline (Quality Biological, Gaithersburg, MD, cat. 114-055-101), at 800-fold the tested concentration and stored at -70 degrees C prior to their use. All drugs and investigational agents were tested over a range starting from a high concentration at or near the clinical Cmax and decreasing in half-log increments. If the clinical Cmax for an agent had not been determined, the highest concentration tested was 10 microM, except for SN-38, which was tested at a high concentration of 1 microM.
Cell Culture. All cells were maintained in an incubator at 37 degrees C and 5% CO2 with 95% humidity. The PDC lines were cultured according to standard operating procedures established by the NCI PDMR (https://pdmr.cancer.gov). Table 3 of the manuscript, lists the cell lines along with the number of the three cell types plated to form the mct-spheroids and media for tumor cell growth. After thawing, all PDC lines, except 997537-175-T-J1-PDC and 415267-285-R-J2-PDC, were cultured in Matrigel-coated flasks prepared with a working solution of 1X Ham's F-12 nutrient mix, without supplementation (Thermo Fisher Scientific, cat. 11765054), 100 U/mL penicillin-streptomycin (Thermo Fisher Scientific, cat. 15140122), and 2.5% Matrigel (Corning Inc., Corning, NY, cat. 354248) for the first three passages. The two PDC lines 997537-175-T-J1-PDC and 415267-285-R-J2-PDC were cultured on uncoated flasks. The 857933-349-R-J2-PDC line was cultured in 6C/Colon 1B media containing advanced DMEM/F-12 (Thermo Fisher Scientific, cat. 12634028), 10 mM HEPES (Thermo Fisher Scientific, cat. 15630080), 1X GlutaMAX supplement (Thermo Fisher Scientific, cat. 35050061), 0.1 mg/mL primocin (InvivoGen, San Diego, CA, cat. ant-pm-2), 10% defined fetal bovine serum, heat inactivated (HyClone Laboratories Inc., Logan, UT, cat. SH30070.03HI), 50% L-WRN conditioned media (ATCC, cat. CRL-3276), 1.25 mM N-Acetyl-L-cysteine (Sigma-Aldrich, cat. A9165), 10 mM nicotinamide (Sigma-Aldrich, cat. N0636), 1X B-27 supplement (Thermo Fisher Scientific, cat. 17504044), 1X N-2 supplement (Thermo Fisher Scientific, cat. […]

[1] = second compound 0.0316 µM, first compound 0.0316 µM
[2] = second compound 0.0316 µM, first compound 0.1 µM
[3] = second compound 0.0316 µM, first compound 0.316 µM
[4] = second compound 0.0316 µM, first compound 1 µM
[5] = second compound 0.0316 µM, first compound 3.16 µM
[6] = second compound 0.0316 µM, first compound 10 µM
[7] = second compound 0.1 µM, first compound 0.0316 µM
[8] = second compound 0.1 µM, first compound 0.1 µM
[9] = second compound 0.1 µM, first compound 0.316 µM
[10] = second compound 0.1 µM, first compound 1 µM
[11] = second compound 0.1 µM, first compound 3.16 µM
[12] = second compound 0.1 µM, first compound 10 µM
[13] = second compound 0.316 µM, first compound 0.0316 µM
[14] = second compound 0.316 µM, first compound 0.1 µM
[15] = second compound 0.316 µM, first compound 0.316 µM
[16] = second compound 0.316 µM, first compound 1 µM
[17] = second compound 0.316 µM, first compound 3.16 µM
[18] = second compound 0.316 µM, first compound 10 µM
[19] = second compound 1 µM, first compound 0.0316 µM
[20] = second compound 1 µM, first compound 0.1 µM
[21] = second compound 1 µM, first compound 0.316 µM
[22] = second compound 1 µM, first compound 1 µM
[23] = second compound 1 µM, first compound 3.16 µM
[24] = second compound 1 µM, first compound 10 µM
[25] = second compound 3.16 µM, first compound 0.0316 µM
[26] = second compound 3.16 µM, first compound 0.1 µM
[27] = second compound 3.16 µM, first compound 0.316 µM
[28] = second compound 3.16 µM, first compound 1 µM
[29] = second compound 3.16 µM, first compound 3.16 µM
[30] = second compound 3.16 µM, first compound 10 µM
[31] = second compound 10 µM, first compound 0.0316 µM
[32] = second compound 10 µM, first compound 0.1 µM
[33] = second compound 10 µM, first compound 0.316 µM
[34] = second compound 10 µM, first compound 1 µM
[35] = second compound 10 µM, first compound 3.16 µM
[36] = second compound 10 µM, first compound 10 µM
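Also: spheroids exposed to compounds for 7 days.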
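For viability, T/C in this document: 100% = DMSO vehicle-treated spheroids.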

## COc1cccc2c1C(=O)c1c(O)c3c(c(O)c1C2=O)CC(O)(C(=O)CO)CC3OC1CC(N)C(O)C(C)O1 (centres undefined) + COC1C(OC(N)=O)C(O)C(Oc2ccc3c(O)c(NC(=O)c4ccc(O)c(CC=C(C)C)c4)c(=O)oc3c2C)OC1(C)C
Second compound 0.0316 µM
  IC50: 0.11 µM
Second compound 0.1 µM
  IC50: < 0.0316 µM
Second compound 0.316 µM
  IC50: < 0.0316 µM
Second compound 1 µM
  IC50: 0.109 µM
Second compound 3.16 µM
  IC50: 0.143 µM
Second compound 10 µM
  IC50: < 0.0316 µM
[1]
  viability, T/C: 17.6%
[2]
  viability, T/C: 90.5%
[3]
  viability, T/C: 5.53%
[4]
  viability, T/C: 1.37%
[5]
  viability, T/C: 0.16%
[6]
  viability, T/C: 0.52%
[7]
  viability, T/C: 16.5%
[8]
  viability, T/C: 75.1%
[9]
  viability, T/C: 6.74%
[10]
  viability, T/C: 0.41%
[11]
  viability, T/C: 0.25%
[12]
  viability, T/C: 0.49%
[13]
  viability, T/C: 14.3%
[14]
  viability, T/C: 82%
[15]
  viability, T/C: 7.31%
[16]
  viability, T/C: 0.98%
[17]
  viability, T/C: 0.19%
[18]
  viability, T/C: 0.45%
[19]
  viability, T/C: 22.7%
[20]
  viability, T/C: 84.3%
[21]
  viability, T/C: 6.03%
[22]
  viability, T/C: 1.44%
[23]
  viability, T/C: 0.19%
[24]
  viability, T/C: 0.51%
[25]
  viability, T/C: 21.1%
[26]
  viability, T/C: 119%
[27]
  viability, T/C: 6.03%
[28]
  viability, T/C: 0.63%
[29]
  viability, T/C: 0.27%
[30]
  viability, T/C: 0.51%
[31]
  viability, T/C: 15.7%
[32]
  viability, T/C: 83.3%
[33]
  viability, T/C: 5.98%
[34]
  viability, T/C: 0.49%
[35]
  viability, T/C: 0.31%
[36]
  viability, T/C: 0.47%

## Nc1ccn(C2OC(CO)C(O)C2(F)F)c(=O)n1 (centres undefined) + Nc1ccc(C#CCN(C(=O)Cc2ncc(C(F)(F)F)cc2C(F)(F)F)c2ccc(F)cc2)nn1
Second compound 0.0316 µM
  IC50: < 0.0316 µM
Second compound 0.1 µM
  IC50: < 0.0316 µM
Second compound 0.316 µM
  IC50: < 0.0316 µM
Second compound 1 µM
  IC50: < 0.0316 µM
Second compound 3.16 µM
  IC50: < 0.0316 µM
Second compound 10 µM
  IC50: < 0.0316 µM
[1]
  viability, T/C: 3.03%
[2]
  viability, T/C: 4.05%
[3]
  viability, T/C: 4.41%
[4]
  viability, T/C: 4.06%
[5]
  viability, T/C: 2.78%
[6]
  viability, T/C: 2.3%
[7]
  viability, T/C: 3.67%
[8]
  viability, T/C: 4.46%
[9]
  viability, T/C: 3.95%
[10]
  viability, T/C: 3.72%
[11]
  viability, T/C: 3.07%
[12]
  viability, T/C: 1.99%
[13]
  viability, T/C: 3.79%
[14]
  viability, T/C: 3.81%
[15]
  viability, T/C: 4.1%
[16]
  viability, T/C: 4.23%
[17]
  viability, T/C: 2.51%
[18]
  viability, T/C: 2.13%
[19]
  viability, T/C: 3.62%
[20]
  viability, T/C: 4.03%
[21]
  viability, T/C: 4.21%
[22]
  viability, T/C: 3.9%
[23]
  viability, T/C: 2.69%
[24]
  viability, T/C: 1.87%
[25]
  viability, T/C: 4.08%
[26]
  viability, T/C: 3.7%
[27]
  viability, T/C: 3.44%
[28]
  viability, T/C: 3.79%
[29]
  viability, T/C: 2.78%
[30]
  viability, T/C: 1.9%
[31]
  viability, T/C: 5.53%
[32]
  viability, T/C: 3.31%
[33]
  viability, T/C: 3.9%
[34]
  viability, T/C: 3.4%
[35]
  viability, T/C: 3.17%
[36]
  viability, T/C: 2.42%

Reference: PubChem BioAssay AID1963839 (Molecular Pharmacology Branch, DTP, NCI, 2024)
